Converted amounts (≈) assume the structure as drawn.
Experiments:
Assay in all cases: ≥ marks a high value that may be exact or a test limit, other limits are often not marked, values filed in µg/mL are converted to µM
Bacillus subtilis = tested on: Bacillus subtilis
[1] = tested on: Candida albicans ATCC 2002
[2] = tested on: Escherichia coli ATCC 25922
[3] = tested on: Staphylococcus aureus ATCC 2592
[4] = tested on: Cronobacter muytjensii ATCC 51329
[5] = tested on: Cronobacter sakazakii ATCC BAA-894
[6] = tested on: Cronobacter sakazakii DPC 6440
[7] = tested on: Cronobacter sakazakii DSM 4485
[8] = tested on: Escherichia coli NCIMB 11843
[9] = tested on: Klebsiella pneumoniae NCIMB 13218
[10] = tested on: Pseudomonas fluorescens NCIMB 9046
[11] = tested on: Salmonella enterica subsp. enterica serovar Typhimurium LT2
[12] = tested on: Staphylococcus aureus NCTC 8325-4
[13] = tested on: Staphylococcus aureus Newman
[14] = tested on: Staphylococcus aureus RF122
[15] = tested on: Staphylococcus aureus RN4220
[16] = tested on: Staphylococcus aureus SA113
[17] = tested on: Clavibacter michiganensis subsp. michiganensis DSM 46294
[18] = tested on: Pectobacterium carotovorum subsp. carotovorum DSM 30168
[19] = tested on: Pseudomonas corrugata DSM 7228
[20] = tested on: Pseudomonas syringae pv. syringae DSM 10604
[21] = tested on: Pseudomonas syringae pv. tomato DC3000
[22] = tested on: Xanthomonas vesicatoria DSM 50861
[23] = tested on: Pseudomonas aeruginosa ATCC 9027
Escherichia coli JW0013 = tested on: Escherichia coli JW0013
Escherichia coli = tested on: Escherichia coli
Listeria innocua = tested on: Listeria innocua
Micrococcus luteus A270 = tested on: Micrococcus luteus A270

MIC [1]	MIC [2]	MIC [3]	MIC [4]	MIC [5]	MIC [6]	MIC [7]	MIC [8]	MIC [9]	MIC [10]	MIC [11]	MIC [12]	MIC [13]	MIC [14]	MIC [15]	MIC [16]	SMILES	other results
4.77 µM (≈ 12.5 µg/mL)	4.77 µM (≈ 12.5 µg/mL)	4.77 µM (≈ 12.5 µg/mL)	–	–	–	–	–	–	–	–	–	–	–	–	–	CC[C@H](C)[C@H](NC(=O)[C@H](C)NC(=O)[C@H](CS)NC(=O)[C@@H](NC(=O)[C@@H](NC(=O)[C@@H](NC(=O)CNC(=O)[C@@H](NC(=O)[C@@H](NC(=O)[C@@H](NC(=O)[C@H](C)NC(=O)[C@H](Cc1ccccc1)NC(=O)[C@H](CC(C)C)NC(=O)[C@H](CCCN=C(N)N)NC(=O)[C@H](CCCN=C(N)N)NC(=O)[C@H](CC(C)C)NC(=O)CNC(=O)CNC(=O)[C@@H](NC(=O)[C@@H](N)Cc1ccccc1)[C@@H](C)CC)[C@@H](C)O)C(C)C)C(C)C)[C@@H](C)O)C(C)C)C(C)C)C(=O)N[C@@H](CC(N)=O)C(=O)N[C@@H](CCCCN)C(=O)N[C@@H](CC(C)C)C(=O)NCC(=O)NCC(=O)NCC(=O)O [FIGGLRRLFATVVGTVVCAINKLGGG]	MIC (Bacillus subtilis): ≥ 38.2 µM
–	–	–	≥ 2500 µM	≥ 2500 µM	≥ 625 µM	≥ 2500 µM	≥ 1250 µM	≥ 1250 µM	≥ 1250 µM	≥ 1250 µM	≥ 1250 µM	≥ 1250 µM	≥ 1250 µM	≥ 1250 µM	≥ 1250 µM	CC[C@H](C)[C@H](N)C(=O)N[C@@H](CCCCN)C(=O)N[C@@H](C)C(=O)N[C@@H](CCC(N)=O)C(=O)NCC(=O)N[C@@H](CC(C)C)C(=O)N1CCC[C@H]1C(=O)N[C@@H](CCC(N)=O)C(=O)N[C@@H](CCC(=O)O)C(=O)O [IKAQGLPQE]	–
–	–	–	–	–	–	–	–	–	–	–	–	–	–	–	–	CC(C)C[C@H](NC(=O)[C@H](C)NC(=O)[C@H](CC(C)C)NC(=O)[C@H](CCCN=C(N)N)NC(=O)[C@H](CCCN=C(N)N)NC(=O)[C@@H](N)CCCCN)C(=O)N[C@@H](Cc1ccccc1)C(=O)N[C@@H](CCCN=C(N)N)C(=O)N[C@@H](CC(C)C)C(=O)N[C@@H](Cc1ccccc1)C(=O)N[C@@H](CCCN=C(N)N)C(=O)N[C@@H](CC(C)C)C(=O)N[C@@H](C)C(=O)N[C@@H](CC(C)C)C(=O)N[C@@H](CCCCN)C(=O)N[C@@H](CC(C)C)C(=O)N[C@H](C(=O)N[C@@H](CC(C)C)C(=O)N[C@@H](CCCCN)C(=O)N[C@@H](CCCCN)C(N)=O)C(C)C [KRRLALFRLFRLALKLVLKK]	MIC [17]: 1.01 µM (≈ 2.5 µg/mL); MIC [18]: 4.03 µM (≈ 10 µg/mL); MIC [19]: 4.03 µM (≈ 10 µg/mL); MIC [20]: 4.03 µM (≈ 10 µg/mL); MIC [21]: 1.01 µM (≈ 2.5 µg/mL); MIC [22]: 1.01 µM (≈ 2.5 µg/mL)
–	–	–	≥ 1250 µM	≥ 625 µM	≥ 1250 µM	≥ 1250 µM	≥ 1250 µM	≥ 2500 µM	≥ 1250 µM	≥ 2500 µM	≥ 2500 µM	≥ 2500 µM	≥ 625 µM	≥ 2500 µM	≥ 2500 µM	CC[C@H](C)[C@H](N)C(=O)N[C@@H](CCCN=C(N)N)C(=O)N[C@@H](Cc1cnc[nH]1)C(=O)N[C@@H](CCC(N)=O)C(=O)NCC(=O)N[C@@H](CC(C)C)C(=O)N1CCC[C@H]1C(=O)N[C@@H](CCC(N)=O)C(=O)N[C@@H](CCC(=O)O)C(=O)O [IRHQGLPQE]	–
≥ 35 µM	35 µM (≈ 75.8 µg/mL)	17 µM (≈ 36.8 µg/mL)	–	–	–	–	–	–	–	–	–	–	–	–	–	CC(C)C[C@H](NC(=O)CNC(=O)[C@H](Cc1ccccc1)NC(=O)[C@H](CC(C)C)NC(=O)[C@H](CCCN=C(N)N)NC(=O)[C@H](CC(C)C)NC(=O)[C@H](Cc1c[nH]c2ccccc12)NC(=O)CNC(=O)CNC(=O)[C@H](CO)NC(=O)[C@H](CCCCN)NC(=O)[C@H](CC(C)C)NC(=O)[C@H](C)NC(=O)[C@@H](N)CC(C)C)C(=O)N[C@@H](CCCCN)C(=O)N[C@@H](CC(=O)O)C(=O)N[C@@H](CCCCN)C(=O)N[C@@H](CCCCN)C(=O)N[C@@H](Cc1cnc[nH]1)C(N)=O [LALKSGGWLRLFGLKDKKH]	MIC [23]: 9 µM (≈ 19.5 µg/mL)
–	–	–	–	–	–	–	–	–	–	–	–	–	–	–	–	CC[C@H](C)[C@H](NC(=O)[C@H](CCCN=C(N)N)NC(=O)[C@H](CCCN=C(N)N)NC(=O)[C@@H]1CCCN1C(=O)[C@@H]1CCCN1C(=O)[C@H](CCCN=C(N)N)NC(=O)[C@@H]1CCCN1C(=O)[C@H](CCCN=C(N)N)NC(=O)[C@@H]1CCCN1C(=O)[C@H](CC(C)C)NC(=O)[C@H](Cc1ccc(O)cc1)NC(=O)[C@H](CCCCN)NC(=O)[C@@H]1CCCN1C(=O)[C@H](CCCCN)NC(=O)[C@H](CC(=O)O)NC(=O)[C@@H](N)C(C)C)C(=O)N[C@@H](Cc1ccc(O)cc1)C(=O)N[C@@H](CC(N)=O)C(=O)N[C@@H](CCCN=C(N)N)C(N)=O [VDKPKYLPRPRPPRRIYNR]	MIC (Escherichia coli JW0013): 1.36 µM (≈ 3.3 µg/mL)
–	–	–	≥ 1250 µM	≥ 2500 µM	≥ 312 µM	≥ 2500 µM	≥ 1250 µM	≥ 1250 µM	≥ 2500 µM	≥ 1250 µM	≥ 1250 µM	≥ 1250 µM	≥ 625 µM	≥ 1250 µM	≥ 1250 µM	CC[C@H](C)[C@H](N)C(=O)N[C@@H](CCCCN)C(=O)N[C@@H](Cc1cnc[nH]1)C(=O)N[C@@H](CCCN=C(N)N)C(=O)NCC(=O)N[C@@H](CC(C)C)C(=O)N1CCC[C@H]1C(=O)N[C@@H](CCC(N)=O)C(=O)N[C@@H](CCC(=O)O)C(=O)O [IKHRGLPQE]	–
19 µM (≈ 50 µg/mL)	9.5 µM (≈ 25 µg/mL)	4.79 µM (≈ 12.6 µg/mL)	–	–	–	–	–	–	–	–	–	–	–	–	–	CC[C@H](C)[C@H](NC(=O)CNC(=O)[C@H](Cc1c[nH]c2ccccc12)NC(=O)[C@H](C)NC(=O)[C@H](CCCCN)NC(=O)[C@H](C)N)C(=O)NCC(=O)NCC(=O)N[C@@H](Cc1cnc[nH]1)C(=O)N[C@H](C(=O)N[C@H](C(=O)NCC(=O)N[C@@H](CCC(N)=O)C(=O)N[C@H](C(=O)N[C@H](C(=O)NCC(=O)N[C@H](C(=O)N[C@@H](CCCN=C(N)N)C(=O)N[C@H](C(=O)N[C@@H](CCCN=C(N)N)C(=O)NCC(=O)N[C@@H](CC(C)C)C(=O)N[C@@H](CS)C(=O)NCC(=O)N[C@@H](CC(N)=O)C(=O)N[C@H](C(=O)O)C(C)C)[C@@H](C)CC)C(C)C)C(C)C)[C@@H](C)CC)[C@@H](C)CC)C(C)C [AKAWGIGGHVIGQIVGVRIRGLCGNV]	–
–	–	–	–	–	–	–	–	–	–	–	–	–	–	–	–	CC[C@H](C)[C@H](NC(=O)[C@H](CCCN=C(N)N)NC(=O)[C@H](CCCN=C(N)N)NC(=O)[C@@H]1CCCN1C(=O)[C@@H]1CCCN1C(=O)[C@H](CCCN=C(N)N)NC(=O)[C@@H]1CCCN1C(=O)[C@H](CCCN=C(N)N)NC(=O)[C@@H]1CCCN1C(=O)[C@H](CC(C)C)NC(=O)[C@H](Cc1ccc(O)cc1)NC(=O)[C@H](CC(=O)O)NC(=O)[C@@H]1CCCN1C(=O)[C@H](CCCCN)NC(=O)[C@H](CC(=O)O)NC(=O)[C@@H](N)C(C)C)C(=O)N[C@@H](Cc1ccc(O)cc1)C(=O)N[C@@H](CC(N)=O)C(=O)N[C@@H](CCCN=C(N)N)C(N)=O [VDKPDYLPRPRPPRRIYNR]	MIC (Escherichia coli JW0013): 1.37 µM (≈ 3.3 µg/mL)
–	–	–	–	–	–	–	–	–	–	–	–	–	–	–	–	CC(C)C[C@H](NC(=O)[C@H](CC(C)C)NC(=O)[C@H](CO)NC(=O)[C@H](Cc1cnc[nH]1)NC(=O)[C@H](CO)NC(=O)[C@H](CC(C)C)NC(=O)[C@H](CC(C)C)NC(=O)[C@H](CCCCN)NC(=O)[C@H](Cc1ccccc1)NC(=O)[C@H](CC(N)=O)NC(=O)[C@@H](N)C(C)C)C(=O)O [VNFKLLSHSLL]	MIC (Escherichia coli): 98 µM (≈ 125 µg/mL); MIC (Listeria innocua): 24 µM (≈ 30.5 µg/mL); MIC (Micrococcus luteus A270): 24 µM (≈ 30.5 µg/mL)

From DBAASP
